Key:
[1] = The drug is tested on Clostridium scindens strain: ATCC35704 for biotransformation. The drug concentrations were measured before and after a 12-h incubation by liquid-chromatography-coupled mass spectrometry (LC–MS); details: 2 µM
[2] = The drug is tested on Ruminococcus torques strain: ATCC27756 for biotransformation. The drug concentrations were measured before and after a 12-h incubation by liquid-chromatography-coupled mass spectrometry (LC–MS); format: ADME; design: dose 2 uM, timepoint 0 vs 12 hours; details: 2 µM
[3] = The drug is tested on Eubacterium hallii strain: DSM3353 for biotransformation. The drug concentrations were measured before and after a 12-h incubation by liquid-chromatography-coupled mass spectrometry (LC–MS); details: anaerobutyricum hallii, 2 µM
[4] = roseburia intestinalis, 12 h, 2 µM
Description: The drug is tested on Roseburia intestinalis strain: L1-82 for biotransformation. The drug concentrations were measured before and after a 12-h incubation by liquid-chromatography-coupled mass spectrometry (LC–MS)

[5] = The drug is tested on Blautia luti strain: DSM14534 for biotransformation. The drug concentrations were measured before and after a 12-h incubation by liquid-chromatography-coupled mass spectrometry (LC–MS); format: ADME; design: dose 2 uM, timepoint 0 vs 12 hours; details: 2 µM
[6] = bifidobacterium adolescentis, 12 h, 2 µM
[7] = The drug is tested on Bifidobacterium ruminantium strain: fecal isolate for biotransformation. The drug concentrations were measured before and after a 12-h incubation by liquid-chromatography-coupled mass spectrometry (LC–MS); details: 2 µM
[8] = The drug is tested on Bacteroides ovatus strain: ATCC8483 for biotransformation. The drug concentrations were measured before and after a 12-h incubation by liquid-chromatography-coupled mass spectrometry (LC–MS); details: 2 µM
[9] = The drug is tested on Collinsella aerofaciens strain: ATCC25986 for biotransformation. The drug concentrations were measured before and after a 12-h incubation by liquid-chromatography-coupled mass spectrometry (LC–MS); details: 2 µM
[10] = The drug is tested on Ruminococcus lactaris strain: ATCC29176 for biotransformation. The drug concentrations were measured before and after a 12-h incubation by liquid-chromatography-coupled mass spectrometry (LC–MS); details: 2 µM
[11] = The drug is tested on Clostridium sporogenes strain: ATCC15579 for biotransformation. The drug concentrations were measured before and after a 12-h incubation by liquid-chromatography-coupled mass spectrometry (LC–MS); details: 2 µM
[12] = The drug is tested on Bifidobacterium longum subsp. Infantis strain: CCUG52486 for biotransformation. The drug concentrations were measured before and after a 12-h incubation by liquid-chromatography-coupled mass spectrometry (LC–MS); details: 2 µM
[13] = The drug is tested on Eubacterium ventriosum strain: ATCC27560 for biotransformation. The drug concentrations were measured before and after a 12-h incubation by liquid-chromatography-coupled mass spectrometry (LC–MS); format: ADME; design: dose 2 uM, timepoint 0 vs 12 hours; details: 2 µM
[14] = The drug is tested on Bifidobacterium breve strain: DSM20213 for biotransformation. The drug concentrations were measured before and after a 12-h incubation by liquid-chromatography-coupled mass spectrometry (LC–MS); details: 2 µM
[15] = bacteroides fragilis, 12 h, 2 µM
[16] = bacteroides thetaiotaomicron, 12 h, 2 µM
[17] = The drug is tested on Bacteroides dorei strain: DSM17855 for biotransformation. The drug concentrations were measured before and after a 12-h incubation by liquid-chromatography-coupled mass spectrometry (LC–MS); details: phocaeicola dorei, 2 µM
[18] = bacteroides fragilis, 12 h, 2 µM; remark: listed apart in the source
Description: The drug is tested on Bacteroides fragilis strain: 3397 (T10) for biotransformation. The drug concentrations were measured before and after a 12-h incubation by liquid-chromatography-coupled mass spectrometry (LC–MS)

Row | SMILES | Bacterial Biotransformation [1] | Bacterial Biotransformation [2] | Bacterial Biotransformation [3] | Bacterial Biotransformation [4] | Bacterial Biotransformation [5] | Bacterial Biotransformation [6] | Bacterial Biotransformation [7] | Bacterial Biotransformation [8] | Bacterial Biotransformation [9] | Bacterial Biotransformation [10] | Bacterial Biotransformation [11] | Bacterial Biotransformation [12] | Bacterial Biotransformation [13] | Bacterial Biotransformation [14] | Bacterial Biotransformation [15] | Bacterial Biotransformation [16] | Bacterial Biotransformation [17] | Bacterial Biotransformation [18]
1 | CCN(CC)CCNC(C(=O)OCCC(C)C)c1ccccc1.Cl.Cl (configuration not stated) | Compound NOT metabolized | Compound NOT metabolized | Compound NOT metabolized | Compound NOT metabolized | Compound NOT metabolized | Compound NOT metabolized | Compound NOT metabolized | Compound NOT metabolized | Compound NOT metabolized | Compound NOT metabolized | Compound NOT metabolized | Compound NOT metabolized | Compound NOT metabolized |  |  |  |  | 
2 | COc1ccc(CCN(C)CCCC(C#N)(c2ccc(OC)c(OC)c2)C(C)C)cc1OC (configuration not stated) |  | Compound NOT metabolized | Compound metabolized |  | Compound NOT metabolized | Compound NOT metabolized | Compound NOT metabolized | Compound metabolized | Compound NOT metabolized | Compound NOT metabolized |  | Compound NOT metabolized |  | Compound NOT metabolized | Compound NOT metabolized | Compound metabolized |  | 
3 | CCCCc1nc(Cl)c(CO)n1Cc1ccc(-c2ccccc2-c2nn[nH]n2)cc1 [LOSARTAN] | Compound NOT metabolized | Compound NOT metabolized | Compound NOT metabolized |  | Compound NOT metabolized | Compound NOT metabolized | Compound metabolized | Compound NOT metabolized | Compound NOT metabolized | Compound NOT metabolized | Compound NOT metabolized | Compound NOT metabolized | Compound NOT metabolized |  | Compound metabolized | Compound NOT metabolized | Compound metabolized | 
4 | O=C1N=C([O-])NC1(c1ccccc1)c1ccccc1.[Na+] [PHENYTOIN SODIUM] | Compound NOT metabolized | Compound NOT metabolized | Compound NOT metabolized | Compound NOT metabolized |  | Compound NOT metabolized | Compound metabolized | Compound metabolized | Compound metabolized |  | Compound metabolized |  |  | Compound NOT metabolized | Compound metabolized | Compound NOT metabolized | Compound metabolized | 
5 | COc1cc2nc(N3CCN(C(=O)c4ccco4)CC3)nc(N)c2cc1OC [PRAZOSIN] |  | Compound NOT metabolized | Compound NOT metabolized | Compound NOT metabolized | Compound NOT metabolized | Compound NOT metabolized | Compound NOT metabolized | Compound NOT metabolized | Compound NOT metabolized | Compound NOT metabolized |  | Compound NOT metabolized | Compound NOT metabolized | Compound NOT metabolized |  | Compound NOT metabolized |  | Compound NOT metabolized
6 | OCCOCCN1CCN(C2=Nc3ccccc3Sc3ccccc32)CC1 [QUETIAPINE] | Compound NOT metabolized | Compound NOT metabolized | Compound NOT metabolized | Compound NOT metabolized | Compound NOT metabolized | Compound NOT metabolized | Compound NOT metabolized | Compound NOT metabolized | Compound NOT metabolized | Compound NOT metabolized |  | Compound NOT metabolized | Compound NOT metabolized | Compound NOT metabolized | Compound NOT metabolized |  | Compound NOT metabolized | Compound NOT metabolized
7 | CN(C)CCc1c[nH]c2ccc(Cn3cncn3)cc12.O=C(O)c1ccccc1 [RIZATRIPTAN BENZOATE] | Compound NOT metabolized | Compound NOT metabolized | Compound NOT metabolized | Compound NOT metabolized | Compound NOT metabolized |  | Compound NOT metabolized |  | Compound NOT metabolized | Compound NOT metabolized |  |  | Compound NOT metabolized | Compound NOT metabolized |  | Compound NOT metabolized | Compound NOT metabolized | 
8 | O=C1C(CC[S+]([O-])c2ccccc2)C(=O)N(c2ccccc2)N1c1ccccc1 (configuration not stated) [SULFINPYRAZONE] |  |  | Compound NOT metabolized | Compound NOT metabolized | Compound NOT metabolized | Compound NOT metabolized | Compound NOT metabolized | Compound NOT metabolized | Compound NOT metabolized | Compound NOT metabolized |  | Compound NOT metabolized | Compound NOT metabolized | Compound NOT metabolized | Compound metabolized | Compound NOT metabolized |  | Compound NOT metabolized
9 | O=c1n(CCCN2CCN(c3cccc(Cl)c3)CC2)nc2ccccn12 [TRAZODONE] | Compound NOT metabolized | Compound NOT metabolized | Compound NOT metabolized | Compound NOT metabolized | Compound NOT metabolized | Compound NOT metabolized | Compound NOT metabolized | Compound NOT metabolized | Compound NOT metabolized | Compound NOT metabolized | Compound NOT metabolized | Compound NOT metabolized | Compound NOT metabolized | Compound NOT metabolized | Compound NOT metabolized | Compound NOT metabolized | Compound NOT metabolized | Compound NOT metabolized

From ChEMBL document CHEMBL5303573, “Mapping human microbiome drug metabolism by gut bacteria and their genes” (Nature, 2019)
